Measurements: patent EP4741383A1, “COMPOUND AND USE THEREOF AS ANTI-CANCER DRUG” (Tyligand Bioscience (Shanghai) Limited, priority 2023, dated 2025)
pIC50: −log10 of the molar value.

Target: T1, SHP2 enzyme (catalytic domain, amino acid sequence 224-528) (Homo sapiens, UniProt Q06124)
T1 construct: purchased GenScript
T1 sequence (Q06124 224-528): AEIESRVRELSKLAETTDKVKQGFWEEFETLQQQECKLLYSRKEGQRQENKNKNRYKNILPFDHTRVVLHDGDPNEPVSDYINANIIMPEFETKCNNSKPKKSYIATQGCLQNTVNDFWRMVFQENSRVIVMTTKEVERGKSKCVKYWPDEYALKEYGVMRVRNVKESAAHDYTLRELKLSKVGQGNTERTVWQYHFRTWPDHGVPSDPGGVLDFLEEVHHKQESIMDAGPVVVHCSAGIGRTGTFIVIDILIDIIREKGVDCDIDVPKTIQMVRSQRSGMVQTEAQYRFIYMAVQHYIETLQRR
Test: SHP2 enzyme inhibition assay (DiFMUP substrate, fluorescence)
Assay type: biochemical
Settings: not given
Experimental: This experiment evaluates the inhibitory effect of the test compounds on SHP2 enzyme activity by detecting the reaction between the human recombinant protein SHP2 enzyme and the substrate.
The stock solutions of the reaction buffer components were thawed and mixed homogeneously at room temperature, to prepare the reaction buffer (55 mM HEPES pH = 7.2 (Sigma, Cat. No. #PHR1428), 100 mM NaCl (Beyotime, Cat. No. #ST374, 5 M solution), 0.5 mM EDTA (Beyotime, Cat. No. #ST066), 1 mM DL-Dithiothreitol (DTT) (Sigma, Cat. No. #D9779), 0.002% BSA (Solarbio, Cat. No. #A8010), 0.001% Brij35 (Brij® L23 solution (Brij35) (Sigma, Cat. No. #B4184)). The SHP2 enzyme (catalytic domain, amino acid sequence 224-528, expressed and purified by GenScript) was thawed slowly on ice. 1 µL of this solution (1.37 mg/mL) was added to 386 µL of the reaction buffer to dilute it to 100 nM. Then, 120 µL of the 100 nM SHP2 enzyme solution was added to 2880 µL of reaction buffer to prepare a 4 nM SHP2 enzyme working solution. The test compounds and the specific inhibitor of SHP2 (11a-1, used as a positive control, Zeng, L. et al., J. Med. Chem. 2014, 57, 6594-6609) were prepared as 10 mM DMSO solutions. 10 µL of the 10 mM compound solution was mixed with 20 µL of DMSO solution, and then serially diluted 3-fold, resulting in 10 concentrations. 1 µL of the serially diluted solution was mixed with 99 µL of reaction buffer to obtain a 10-fold diluted compound working solution.
A 96-well black half-area microplate (Greiner, catalog #675076) was used. 25 µL of 4 nM SHP2 enzyme working solution and 5 µL of 10x compound working solution were added to each well and incubated at room temperature for 30 minutes. 15 µL of DiFMUP substrate (Thermo Fisher Scientific, catalog #D6567) was added to 2985 µL of reaction buffer to prepare a 50 µM substrate working solution. After incubation of the compounds and SHP2 enzyme, 20 µL of the 50 µM substrate working solution was added to each well and incubated at room temperature for 5 minutes. The plate was then read on a multi-mode microplate reader (BioTek, Synergy H1) at 340 nm/450 nm fluorescence.
Data were analyzed using GraphPad Prism 9.0 software. A non-linear S-curve regression dose-response-inhibition equation was used to fit the data and generate the dose-response curve, from which the IC50 value was calculated. [formula]

pIC50 | Compound
7.06 | O=C(Nc1ccc(-c2cc3cc(F)c(-c4nnn[nH]4)cc3n2C2CCC2)cc1)C(=O)Nc1ccc(N2CC(CCO)C2)cc1 [Example 9]

Same assay, conditions: SHP2 catalytic domain, DiFMUP substrate, 30 min pre-incubation; read-out: S HP2 I C50

pIC50 | Compound
6.89 | O=C(Nc1ccc(-c2cc3cc(F)c(-c4nnn[nH]4)cc3n2C2CCC2)cc1)C(=O)Nc1ccc(N2CC(CO)C2)cc1 [Example 8]
7.52 | CC1(C#N)CCN(c2ccc(NC(=O)C(=O)Nc3ccc(-c4cc5cc(F)c(-c6nnn[nH]6)cc5n4C4CCC4)cc3)cc2)C1 (stereo not shown) [Example 11]
6.74 | CC(O)C1CCN(c2ccc(NC(=O)C(=O)Nc3ccc(-c4cc5cc(F)c(-c6nnn[nH]6)cc5n4C4CCC4)cc3)cc2)C1 (stereo not shown) [Example 15]
7.13 | CC1CN(c2ccc(NC(=O)C(=O)Nc3ccc(-c4cc5cc(F)c(-c6nnn[nH]6)cc5n4C4CCC4)cc3)cc2)CC1CO (stereo not shown) [Example 18]
6.82 | CC1(C)CN(c2ccc(NC(=O)C(=O)Nc3ccc(-c4cc5cc(F)c(-c6nnn[nH]6)cc5n4C4CCC4)cc3)cc2)CC1CO (stereo not shown) [Example 19]
7.17 | CC1(n2c(-c3ccc(NC(=O)C(=O)Nc4ccc(N5CCC(C6COC6)CC5)cc4)cc3)cc3cc(F)c(-c4nnn[nH]4)cc32)CCC1 [Example 21]
7.42 | N#CC1CCN(c2ccc(NC(=O)C(=O)Nc3ccc(-c4cc5cc(F)c(-c6nnn[nH]6)cc5n4C4CCC4)cc3)cc2)CC1 [Example 22]
6.57 | CC1(n2c(-c3ccc(NC(=O)C(=O)Nc4ccc(N5CCC(CO)CC5)cc4)cc3)cc3cc(F)c(-c4nnn[nH]4)cc32)CCC1 [Example 24]
7.04 | CC(C)(O)CCC1CCN(c2ccc(NC(=O)C(=O)Nc3ccc(-c4cc5cc(F)c(-c6nnn[nH]6)cc5n4C4CCC4)cc3)cc2)CC1 [Example 28]
7.14 | CC(C)(O)C1CCN(c2ccc(NC(=O)C(=O)Nc3ccc(-c4cc5cc(F)c(-c6nnn[nH]6)cc5n4C4(C)CCC4)cc3)cc2)CC1 [Example 34]
6.76 | CC(C)(O)C1CCN(c2ccc(NC(=O)C(=O)Nc3ccc(-c4cc5cc(F)c(-c6nnn[nH]6)cc5n4C4(C)CC4)cc3)cc2)CC1 [Example 35]
7.36 | CC(C)(O)C1CCN(c2ccc(NC(=O)C(=O)Nc3ccc(-c4cc5cc(F)c(-c6nnn[nH]6)cc5n4CC4CC4)cc3)cc2)CC1 [Example 37]
6.95 | CC(C)(O)C1CCN(c2ccc(NC(=O)C(=O)Nc3ccc(-c4cc5cc(F)c(-c6nnn[nH]6)cc5n4CC4CCC4)cc3)cc2)CC1 [Example 38]
7.37 | CC(C)(O)C1CCN(c2ccc(NC(=O)C(=O)Nc3ccc(-c4cc5cc(F)c(-c6nnn[nH]6)cc5n4CC(F)(F)F)cc3)cc2)CC1 [Example 39]
7.20 | CC1(CO)CCN(c2ccc(NC(=O)C(=O)Nc3ccc(-c4cc5cc(F)c(-c6nnn[nH]6)cc5n4C4(C)CCC4)cc3)cc2)CC1 [Example 41]
6.75 | CC1(CO)CCN(c2ccc(NC(=O)C(=O)Nc3ccc(-c4cc5cc(F)c(-c6nnn[nH]6)cc5n4C4(C)CC4)cc3)cc2)CC1 [Example 42]
7.28 | CCC1(CO)CCN(c2ccc(NC(=O)C(=O)Nc3ccc(-c4cc5cc(F)c(-c6nnn[nH]6)cc5n4C4CCC4)cc3)cc2)CC1 [Example 43]
7.24 | COCC1(CO)CCN(c2ccc(NC(=O)C(=O)Nc3ccc(-c4cc5cc(F)c(-c6nnn[nH]6)cc5n4C4CCC4)cc3)cc2)CC1 [Example 44]
7.35 | CC1CN(c2ccc(NC(=O)C(=O)Nc3ccc(-c4cc5cc(F)c(-c6nnn[nH]6)cc5n4C4CCC4)cc3)cc2)CCC1CO (stereo not shown) [Example 46]

pIC50 | Compound
7.30 | CCC1CN(c2ccc(NC(=O)C(=O)Nc3ccc(-c4cc5cc(F)c(-c6nnn[nH]6)cc5n4C4CCC4)cc3)cc2)CCO1 (stereo not shown) [Example 48]
6.95 | O=C(Nc1ccc(-c2cc3cc(F)c(-c4nnn[nH]4)cc3n2C2CCC2)cc1)C(=O)Nc1ccc(N2CCOC3(CC3)C2)cc1 [Example 50]
6.99 | O=C(Nc1ccc(C2=CCOCC2)cc1)C(=O)Nc1ccc(-c2cc3cc(F)c(-c4nnn[nH]4)cc3n2C2CCC2)cc1 [Example 52]
7.19 | O=C(Nc1ccc(-c2cc3cc(F)c(-c4nnn[nH]4)cc3n2C2CCC2)cc1)C(=O)Nc1ccc(N2CC3(COC3)C2)cc1 [Example 53]
7.16 | O=C(Nc1ccc(-c2cc3cc(F)c(-c4nnn[nH]4)cc3n2C2CCC2)cc1)C(=O)Nc1ccc(N2CC3(CCOC3)C2)cc1 [Example 54]
7.13 | CC1(n2c(-c3ccc(NC(=O)C(=O)Nc4ccc(N5CC6(CCCOC6)C5)cc4)cc3)cc3cc(F)c(-c4nnn[nH]4)cc32)CCC1 [Example 56]
7.19 | O=C(Nc1ccc(-c2cc3cc(F)c(-c4nnn[nH]4)cc3n2C2CCC2)cc1)C(=O)Nc1ccc(N2CCC3(CCCO3)C2)cc1 (stereo not shown) [Example 60]
7.42 | O=C(Nc1ccc(-c2cc3cc(F)c(-c4nnn[nH]4)cc3n2C2CCC2)cc1)C(=O)Nc1ccc(N2CCC3(CC2)COC3)cc1 [Example 63]
7.06 | O=C(Nc1ccc(N2CCC3(CCOC3)CC2)cc1)C(=O)NC1CC=C(c2cc3cc(F)c(-c4nnn[nH]4)cc3n2C2CC2)CC1 (stereo not shown) [Example 64]
6.70 | O=C(Nc1ccc(N2CCC3(CCOC3)CC2)cc1)C(=O)NC12CC(c3cc4cc(F)c(-c5nnn[nH]5)cc4n3C3CCC3)(C1)C2 [Example 65]
6.54 | O=C(Nc1ccc(N2CCC3(CCOC3)CC2)cc1)C(=O)NC1CCN(c2cc3cc(F)c(-c4nnn[nH]4)cc3n2C2CCC2)CC1 [Example 66]
7.30 | O=C(Nc1ccc(-c2cc3cc(F)c(-c4nnn[nH]4)cc3n2C23CC(C2)C3)cc1)C(=O)Nc1ccc(N2CCC3(CCOC3)CC2)cc1 [Example 71]
7.34 | O=C(Nc1ccc(-c2cc3cc(F)c(-c4nnn[nH]4)cc3n2CC2CC2)cc1)C(=O)Nc1ccc(N2CCC3(CCOC3)CC2)cc1 [Example 72]
7.32 | O=C(Nc1ccc(-c2cc3cc(F)c(-c4nnn[nH]4)cc3n2C2CCC2)cc1)C(=O)Nc1ccc(N2CCC3(CCCCO3)CC2)cc1 [Example 73]
7.13 | O=C(Nc1ccc(-c2cc3cc(F)c(-c4nnn[nH]4)cc3n2C2CCC2)cc1)C(=O)Nc1ccc(N2CC3(C2)CC(O)(C(F)(F)F)C3)cc1 [Example 78]
6.97 | O=C(Nc1ccc(-c2cc3cc(F)c(-c4nnn[nH]4)cc3n2C2CCC2)cc1)C(=O)Nc1ccc(N2CC3(CCC(O)C3)C2)cc1 (stereo not shown) [Example 79]
7.22 | CC1(O)CCC2(CC1)CN(c1ccc(NC(=O)C(=O)Nc3ccc(-c4cc5cc(F)c(-c6nnn[nH]6)cc5n4C4(C)CCC4)cc3)cc1)C2 [Example 84]
7.33 | O=C(Nc1ccc(-c2cc3cc(F)c(-c4nnn[nH]4)cc3n2C2CCC2)cc1)C(=O)Nc1ccc(N2CC3(CCC(CO)CC3)C2)cc1 [Example 85]

Compound | pIC50
O=C(Nc1ccc(-c2ccsc2)cc1)C(=O)Nc1ccc(-c2cc3cc(O)c(-c4nnn[nH]4)cc3n2C2CCC2)cc1 [Example 3] | 6.56
O=C(Nc1ccc(-c2ccsc2)cc1)C(=O)Nc1ccc(-c2cc3cc(Cl)c(-c4nnn[nH]4)cc3n2C2CCC2)cc1 [Example 5] | 6.98
O=C(Nc1ccc(-c2cc3cc(F)c(-c4nnn[nH]4)cc3n2C2CCC2)cc1)C(=O)Nc1ccc(N2CCC(F)(CO)CC2)cc1 [Example 45] | 7.26
O=C(Nc1ccc(-c2cc3cc(F)c(-c4nnn[nH]4)cc3n2C2CCC2)cc1)C(=O)Nc1ccc(N2CC3CC2CO3)cc1 (stereo not shown) [Example 49] | 6.88
O=C(Nc1ccc(C2=CCOC2)cc1)C(=O)Nc1ccc(-c2cc3cc(F)c(-c4nnn[nH]4)cc3n2C2CCC2)cc1 [Example 51] | 7.24
CC1(O)CCC2(CN(c3ccc(NC(=O)C(=O)Nc4ccc(-c5cc6cc(F)c(-c7nnn[nH]7)cc6n5C5(C)CCC5)cc4)cc3)C2)C1 (stereo not shown) [Example 80] | 7.44
O=C(Nc1ccc(-c2cc3cc(F)c(-c4nnn[nH]4)cc3n2C2CCC2)cc1)C(=O)Nc1ccc(N2CC3(CCC(O)CC3)C2)cc1 [Example 81] | 7.15

Same assay, conditions: relative to 11a-1, IC50 = 0.108 µM

SHP2 IC50 times lower than control compound 11a-1 | Compound
3-4 times | CC1(C#N)CCN(c2ccc(NC(=O)C(=O)Nc3ccc(-c4cc5cc(F)c(-c6nnn[nH]6)cc5n4C4CCC4)cc3)cc2)C1 (stereo not shown) [Example 11]
3-4 times | N#CC1CCN(c2ccc(NC(=O)C(=O)Nc3ccc(-c4cc5cc(F)c(-c6nnn[nH]6)cc5n4C4CCC4)cc3)cc2)CC1 [Example 22]
3-4 times | O=C(Nc1ccc(-c2cc3cc(F)c(-c4nnn[nH]4)cc3n2C2CCC2)cc1)C(=O)Nc1ccc(N2CCC3(CC2)COC3)cc1 [Example 63]

Compound | SHP2 IC50 times lower than control compound 11a-1
CC1(O)CCC2(CN(c3ccc(NC(=O)C(=O)Nc4ccc(-c5cc6cc(F)c(-c7nnn[nH]7)cc6n5C5(C)CCC5)cc4)cc3)C2)C1 (stereo not shown) [Example 80] | 3-4 times
